# According to the supplement of paper PMC10307832:
# How the values were obtained:
# Experiment in all cases: relative viability (nuclei count vs DMSO), 5 days (fraction); higher = more cells survive
# EKVX = system: EKVX
# Procedure, shortened: (§1)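 Relative viability is defined as nuclei in treated wells over nuclei in vehicle wells. Duplicate plates were run and medians reported. Lung cancer cell lines in 1536-well plates were dosed by pin tool one day after seeding, with one drug or with a fixed anchor-drug dose plus five library-drug doses (not always all listed) in √10 steps, and nuclei were counted after 5 days.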
# H3255 = system: H3255
# Procedure, shortened: as §1
# HCC-15 = system: HCC-15
# Procedure, shortened: as §1
# HCC-827 = system: HCC-827
# Procedure, shortened: as §1
# LCLC-97TM1 = system: LCLC-97TM1
# Procedure, shortened: as §1
# LK-2 = system: LK-2
# Procedure, shortened: as §1
# NCI-H1355 = system: NCI-H1355
# Procedure, shortened: as §1
# NCI-H1650 = system: NCI-H1650
# Procedure, shortened: as §1
# NCI-H1734 = system: NCI-H1734
# Procedure, shortened: as §1
# NCI-H1755 = system: NCI-H1755
# Procedure, shortened: as §1
# NCI-H1975 = system: NCI-H1975
# Procedure, shortened: as §1
# NCI-H2342 = system: NCI-H2342
# Procedure, shortened: as §1
# NCI-H2405 = system: NCI-H2405
# Procedure, shortened: as §1
# NCI-H322M = system: NCI-H322M
# Procedure, shortened: as §1
# NCI-H520 = system: NCI-H520
# Procedure, shortened: as §1
# NCI-H661 = system: NCI-H661
# Procedure, shortened: as §1
# PC-14 = system: PC-14
# Procedure, shortened: as §1
# PC-3 [JPC-3] = system: PC-3 [JPC-3]
# Procedure, shortened: as §1
# RERF-LC-KJ = system: RERF-LC-KJ
# Procedure, shortened: as §1
compound,measurement,setting,value
CC(=O)O[C@@]12CO[C@@H]1C[C@H](O)[C@@]1(C)C(=O)[C@H](O)C3=C(C)[C@@H](OC(=O)[C@H](O)[C@@H](NC(=O)OC(C)(C)C)c4ccccc4)C[C@@](O)([C@@H](OC(=O)c4ccccc4)[C@H]21)C3(C)C [Docetaxel] + Nc1ncn([C@H]2C[C@H](O)[C@@H](CO)O2)c(=O)n1 [Decitabine] (partner 2 µM),relative viability,EKVX; first compound 0.0002 µM,0.279
same,relative viability,EKVX; first compound 0.000632 µM,0.327
same,relative viability,EKVX; first compound 0.002 µM,0.26
same,relative viability,EKVX; first compound 0.006325 µM,0.198
same,relative viability,EKVX; first compound 0.02 µM,0.134
same,relative viability,H3255; first compound 0.0002 µM,0.734
same,relative viability,H3255; first compound 0.000632 µM,0.566
same,relative viability,H3255; first compound 0.002 µM,0.335
same,relative viability,H3255; first compound 0.006325 µM,0.31
same,relative viability,H3255; first compound 0.02 µM,0.27
same,relative viability,HCC-15; first compound 0.0002 µM,0.58
same,relative viability,HCC-15; first compound 0.000632 µM,0.338
same,relative viability,HCC-15; first compound 0.002 µM,0.217
same,relative viability,HCC-15; first compound 0.02 µM,0.191
same,relative viability,HCC-827; first compound 0.0002 µM,0.2
same,relative viability,HCC-827; first compound 0.000632 µM,0.343
same,relative viability,HCC-827; first compound 0.002 µM,0.279
same,relative viability,HCC-827; first compound 0.006325 µM,0.251
same,relative viability,HCC-827; first compound 0.02 µM,0.236
same,relative viability,LCLC-97TM1; first compound 0.0002 µM,0.208
same,relative viability,LCLC-97TM1; first compound 0.000632 µM,0.189
same,relative viability,LCLC-97TM1; first compound 0.002 µM,0.133
same,relative viability,LCLC-97TM1; first compound 0.006325 µM,0.112
same,relative viability,LCLC-97TM1; first compound 0.02 µM,0.0836
same,relative viability,LK-2; first compound 0.0002 µM,0.348
same,relative viability,LK-2; first compound 0.000632 µM,0.224
same,relative viability,LK-2; first compound 0.002 µM,0.115
same,relative viability,LK-2; first compound 0.006325 µM,0.126
same,relative viability,LK-2; first compound 0.02 µM,0.13
same,relative viability,NCI-H1355; first compound 0.0002 µM,0.35
same,relative viability,NCI-H1355; first compound 0.000632 µM,0.365
same,relative viability,NCI-H1355; first compound 0.002 µM,0.286
same,relative viability,NCI-H1355; first compound 0.006325 µM,0.276
same,relative viability,NCI-H1355; first compound 0.02 µM,0.179
same,relative viability,NCI-H1650; first compound 0.0002 µM,0.376
same,relative viability,NCI-H1650; first compound 0.000632 µM,0.323
same,relative viability,NCI-H1650; first compound 0.002 µM,0.246
same,relative viability,NCI-H1650; first compound 0.006325 µM,0.2
same,relative viability,NCI-H1650; first compound 0.02 µM,0.193
same,relative viability,NCI-H1734; first compound 0.0002 µM,0.492
same,relative viability,NCI-H1734; first compound 0.000632 µM,0.431
same,relative viability,NCI-H1734; first compound 0.002 µM,0.359
same,relative viability,NCI-H1734; first compound 0.006325 µM,0.307
same,relative viability,NCI-H1734; first compound 0.02 µM,0.218
same,relative viability,NCI-H1755; first compound 0.0002 µM,0.772
same,relative viability,NCI-H1755; first compound 0.000632 µM,0.788
same,relative viability,NCI-H1755; first compound 0.002 µM,0.604
same,relative viability,NCI-H1755; first compound 0.006325 µM,0.463
same,relative viability,NCI-H1755; first compound 0.02 µM,0.507
same,relative viability,NCI-H1975; first compound 0.0002 µM,0.37
same,relative viability,NCI-H1975; first compound 0.000632 µM,0.389
same,relative viability,NCI-H1975; first compound 0.002 µM,0.223
same,relative viability,NCI-H1975; first compound 0.006325 µM,0.177
same,relative viability,NCI-H1975; first compound 0.02 µM,0.122
same,relative viability,NCI-H2342; first compound 0.0002 µM,0.72
same,relative viability,NCI-H2342; first compound 0.000632 µM,0.72
same,relative viability,NCI-H2342; first compound 0.002 µM,0.583
same,relative viability,NCI-H2342; first compound 0.006325 µM,0.519
same,relative viability,NCI-H2342; first compound 0.02 µM,0.489
same,relative viability,NCI-H2405; first compound 0.0002 µM,0.724
same,relative viability,NCI-H2405; first compound 0.000632 µM,0.75
same,relative viability,NCI-H2405; first compound 0.002 µM,0.663
same,relative viability,NCI-H2405; first compound 0.006325 µM,0.498
same,relative viability,NCI-H2405; first compound 0.02 µM,0.341
same,relative viability,NCI-H322M; first compound 0.0002 µM,0.679
same,relative viability,NCI-H322M; first compound 0.000632 µM,0.609
same,relative viability,NCI-H322M; first compound 0.002 µM,0.613
same,relative viability,NCI-H322M; first compound 0.006325 µM,0.653
same,relative viability,NCI-H322M; first compound 0.02 µM,0.553
same,relative viability,NCI-H520; first compound 0.0002 µM,0.454
same,relative viability,NCI-H520; first compound 0.000632 µM,0.465
same,relative viability,NCI-H520; first compound 0.002 µM,0.333
same,relative viability,NCI-H520; first compound 0.006325 µM,0.249
same,relative viability,NCI-H661; first compound 0.0002 µM,0.519
same,relative viability,NCI-H661; first compound 0.000632 µM,0.575
same,relative viability,NCI-H661; first compound 0.002 µM,0.606
same,relative viability,NCI-H661; first compound 0.006325 µM,0.358
same,relative viability,NCI-H661; first compound 0.02 µM,0.343
same,relative viability,PC-14; first compound 0.0002 µM,0.175
same,relative viability,PC-14; first compound 0.000632 µM,0.107
same,relative viability,PC-14; first compound 0.002 µM,0.0764
same,relative viability,PC-14; first compound 0.006325 µM,0.0588
same,relative viability,PC-14; first compound 0.02 µM,0.0313
same,relative viability,PC-3 [JPC-3]; first compound 0.0002 µM,0.816
same,relative viability,PC-3 [JPC-3]; first compound 0.000632 µM,0.849
same,relative viability,PC-3 [JPC-3]; first compound 0.002 µM,0.666
same,relative viability,PC-3 [JPC-3]; first compound 0.006325 µM,0.5
same,relative viability,PC-3 [JPC-3]; first compound 0.02 µM,0.294
same,relative viability,RERF-LC-KJ; first compound 0.0002 µM,0.716
same,relative viability,RERF-LC-KJ; first compound 0.000632 µM,0.542
same,relative viability,RERF-LC-KJ; first compound 0.002 µM,0.232
same,relative viability,RERF-LC-KJ; first compound 0.02 µM,0.146
